In PubChem BioAssay (NCI):
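Five compound concentrations were applied to cells in 96-well plates for 48 hours; endpoints were derived by simple linear interpolation of the resulting dose-response curve. GI50 = concentration required for 50% inhibition of growth. TGI marks complete inhibition of growth.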

What was measured:
Assay in all cases: NCI-60 cell line screen, 48 h
[1] = test system: SNB-19 CNS
[2] = test system: SF-268 CNS
[3] = test system: HS 578T breast
[4] = test system: NCI-H23 lung
[5] = test system: MDA-MB-231 breast
[6] = test system: HL-60(TB) leukemia
[7] = test system: UACC-62 melanoma
[8] = test system: M14 melanoma
[9] = test system: ACHN renal
[10] = test system: HCT-116 colon
[11] = test system: COLO 205 colon
[12] = test system: RXF 393 renal
[13] = test system: KM12 colon
[14] = test system: UACC-257 melanoma
[15] = test system: SK-MEL-5 melanoma
[16] = test system: CCRF-CEM leukemia
[17] = test system: PC-3 prostate
[18] = test system: SNB-75 CNS
[19] = test system: NCI-H226 lung
[20] = test system: 786-0 renal
[21] = test system: IGROV1 ovarian
[22] = test system: SF-295 CNS
[23] = test system: OVCAR-5 ovarian
[24] = test system: BT-549 breast
[25] = test system: NCI-H522 lung
[26] = test system: TK-10 renal
[27] = test system: OVCAR-4 ovarian
[28] = test system: CAKI-1 renal
[29] = test system: SK-MEL-28 melanoma
[30] = test system: OVCAR-3 ovarian
[31] = test system: A549 NSCLC
[32] = test system: SF-539 CNS
[33] = test system: MCF7 breast
[34] = test system: SW-620 colon
[35] = test system: RPMI-8226 leukemia
[36] = test system: NCI-H460 lung
[37] = test system: EKVX NSCLC
[38] = test system: HOP-92 NSCLC
[39] = test system: HCC-2998 colon
[40] = test system: SN12C renal
[41] = test system: HT29 colon
[42] = test system: HOP-62 NSCLC
[43] = test system: MALME-3M melanoma
[44] = test system: HCT-15 colon
[45] = test system: UO-31 renal
[46] = test system: DU-145 prostate
[47] = test system: LOX IMVI melanoma
[48] = test system: SK-MEL-2 melanoma
[49] = test system: MDA-MB-435
[50] = test system: NCI/ADR-RES ovarian
[51] = test system: A498 renal

## O=c1c2cc(F)ccc2sc2c(NCCCNCCO)nc3ccccc3c12
[1]
  GI50: 1660 nM
  TGI: 3140 nM
[2]
  GI50: 1590 nM
  TGI: 3210 nM
[3]
  GI50: 1700 nM
  TGI: 3740 nM
[4]
  GI50: 1720 nM
  TGI: 3220 nM
[5]
  GI50: 1560 nM
  TGI: 3030 nM
[6]
  GI50: 2000 nM
  TGI: 4020 nM
[7]
  GI50: 1730 nM
  TGI: 3230 nM
[8]
  GI50: 1870 nM
  TGI: 3620 nM
[9]
  GI50: 1670 nM
  TGI: 3030 nM
[10]
  GI50: 1730 nM
  TGI: 3320 nM
[11]
  GI50: 2080 nM
  TGI: 4660 nM
[12]
  GI50: 1490 nM
  TGI: 2900 nM
[13]
  GI50: 1840 nM
  TGI: 3520 nM
[14]
  GI50: 1980 nM
  TGI: 3940 nM
[15]
  GI50: 1760 nM
  TGI: 3200 nM
[16]
  GI50: 2020 nM
  TGI: 4760 nM
[17]
  GI50: 1700 nM
  TGI: 3290 nM
[18]
  GI50: 1500 nM
  TGI: 2960 nM
[19]
  GI50: 1500 nM
  TGI: 3000 nM
[20]
  GI50: 1530 nM
  TGI: 3070 nM
[21]
  GI50: 1430 nM
  TGI: 2900 nM
[22]
  GI50: 1770 nM
  TGI: 3260 nM
[23]
  GI50: 1610 nM
  TGI: 3050 nM
[24]
  GI50: 8700 nM
  TGI: 22000 nM
[25]
  GI50: 1870 nM
  TGI: 3800 nM
[26]
  GI50: 1890 nM
  TGI: 3530 nM
[27]
  GI50: 1920 nM
  TGI: 4050 nM
[28]
  GI50: 1610 nM
  TGI: 2970 nM
[29]
  GI50: 1750 nM
  TGI: 3250 nM
[30]
  GI50: 1900 nM
  TGI: 3550 nM
[31]
  GI50: 1790 nM
  TGI: 3780 nM
[32]
  GI50: 1740 nM
  TGI: 3190 nM
[33]
  GI50: 1410 nM
  TGI: 2940 nM
[34]
  GI50: 1620 nM
  TGI: 3140 nM
[35]
  GI50: 2080 nM
  TGI: 4630 nM
[36]
  GI50: 1640 nM
  TGI: 3190 nM
[37]
  GI50: 1670 nM
  TGI: 3470 nM
[38]
  GI50: 1230 nM
  TGI: 3140 nM
[39]
  GI50: 1690 nM
  TGI: 3340 nM
[40]
  GI50: 1670 nM
  TGI: 3170 nM
[41]
  GI50: 1750 nM
  TGI: 3430 nM
[42]
  GI50: 1770 nM
  TGI: 3690 nM
[43]
  GI50: 1610 nM
  TGI: 3090 nM
[44]
  GI50: 1630 nM
  TGI: 3120 nM
[45]
  GI50: 1570 nM
  TGI: 2960 nM
[46]
  GI50: 1720 nM
  TGI: 3130 nM
[47]
  GI50: 1680 nM
  TGI: 3170 nM
[48]
  GI50: 1940 nM
  TGI: 4010 nM
[49]
  GI50: 1790 nM
  TGI: 3400 nM
[50]
  GI50: 1780 nM
  TGI: 3440 nM
[51]
  GI50: 1670 nM
  TGI: 3320 nM
